Measurements published in patent US11008323B2, “Substituted tricyclic 1,4-benzodiazepinone derivatives as allosteric modulators of group II metabotropic glutamate receptors” (Domain Therapeutics, priority 2015, dated 2021).

Assays:
cortical primary neurons = test: NMDA-induced neurotoxicity assay on cortical primary neurons (MTT test); format: cell-based, mouse; settings: 24 hours
Procedure: Primary mouse neurons were incubated with vehicle or NMDA (60 μM)+vehicle or example 207 or LY379268 (mixed mGluR2/3 agonist used as positive control) for 24 hours. Tests were performed in triplicate. Neuron viability was measured using a MTT test.

human mGluR3 (hmGluR3) = target: T1, human mGluR3 (hmGluR3) (Homo sapiens, UniProt Q14832); test: Human mGluR3 positive allosteric modulator evaluation using Ca++ functional assay; format: cell-based; settings: hmGluR3 transiently over-expressed in HEK-293 cells; stimulated by EC50 glutamate concentration; intracellular Ca2+ (Fluo4AM, FLIPR Tetra)
T1 construct: expressed in transfected cells; host or cells: HEK-293 cells, transient co-transfection by electroporation
T1 sequence (Q14832 23-879): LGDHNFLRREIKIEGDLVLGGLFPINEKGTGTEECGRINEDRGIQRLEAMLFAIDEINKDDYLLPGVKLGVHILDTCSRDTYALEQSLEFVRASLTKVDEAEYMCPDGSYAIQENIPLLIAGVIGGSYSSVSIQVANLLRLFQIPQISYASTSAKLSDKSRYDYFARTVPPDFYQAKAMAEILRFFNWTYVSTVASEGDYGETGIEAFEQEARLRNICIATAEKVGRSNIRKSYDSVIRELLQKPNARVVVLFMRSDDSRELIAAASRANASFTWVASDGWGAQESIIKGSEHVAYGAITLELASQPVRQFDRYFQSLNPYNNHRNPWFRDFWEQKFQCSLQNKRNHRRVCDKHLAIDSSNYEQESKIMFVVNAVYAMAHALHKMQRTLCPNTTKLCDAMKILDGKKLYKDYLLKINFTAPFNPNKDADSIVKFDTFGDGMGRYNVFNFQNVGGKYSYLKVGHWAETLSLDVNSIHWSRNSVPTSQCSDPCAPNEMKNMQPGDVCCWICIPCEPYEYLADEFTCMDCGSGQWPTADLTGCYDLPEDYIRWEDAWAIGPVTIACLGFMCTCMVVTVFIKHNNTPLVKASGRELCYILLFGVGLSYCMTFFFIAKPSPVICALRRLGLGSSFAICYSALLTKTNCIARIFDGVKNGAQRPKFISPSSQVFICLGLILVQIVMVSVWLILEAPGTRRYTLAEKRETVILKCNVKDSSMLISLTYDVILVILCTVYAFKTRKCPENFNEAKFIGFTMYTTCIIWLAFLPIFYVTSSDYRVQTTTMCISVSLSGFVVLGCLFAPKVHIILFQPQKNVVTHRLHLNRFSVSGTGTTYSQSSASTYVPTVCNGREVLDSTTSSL
Method in brief: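 HEK-293 cells transiently co-expressing hmGluR3, a chimeric G protein and two glutamate transporters; Fluo4 calcium read on FLIPR. Compound alone for 10 min (agonist), then EC50 glutamate for 3 min (PAM); 20-point curves gave EC50, duplicate, two independent runs.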

SMILES | melting point [°C] | EC50 (human mGluR3 (hmGluR3)) [nM] | toxicity induced by NMDA (neuroprotection), cortical primary neurons (cortical primary neurons; NMDA 60 μM, effect tending to disappear at higher concentrations) | toxicity on cortical primary neuron viability (cortical primary neurons; alone, in absence of NMDA challenge, 30 nM to 30 μM)
Cc1n[nH]c(C)c1-c1ccc2c(c1)-n1cccc1C(=O)N(C)C21CC1 [Example 27, 5-Methyl-9-(3,5-dimethyl-1H-pyrazol-4-yl)-spiro[benzo[f]pyrrolo[1,2-a][1,4]diazepine-6,1′-cyclopropan]-4(5H)-one] | 115 to 125 | > 1000 | – | –
CN1C(=O)c2cccn2-c2cc(-c3ccnc(C(F)(F)F)c3)ccc2C12CC2 [Example 35, 5-Methyl-9-(2-trifluoromethylpyridin-4-yl)-spiro[benzo[f]pyrrolo[1,2-a][1,4]diazepine-6,1′-cyclopropan]-4(5H)-one] | 169 to 174 | 100 to 1000 | – | –
CN1C(=O)c2cc(-c3ccccc3)cn2-c2cc(-c3cccnc3F)ccc2C12CC2 [Example 113, 5-Methyl-2-phenyl-9-(2-fluoro-pyridin-3-yl)-spiro[benzo[f]pyrrolo[1,2-a][1,4]diazepine-6,1′-cyclopropan]-4(5H)-one] | 143 to 149 | 100 to 1000 | – | –
CN1C(=O)c2cccn2-c2cc(-c3c[nH]nc3C(F)(F)F)ccc2C12CC2 [Example 28, 5-Methyl-9-(3-trifluoromethyl-1H-pyrazol-4-yl)-spiro[benzo[f]pyrrolo[1,2-a][1,4]diazepine-6,1′-cyclopropan]-4(5H)-one] | > 250 | > 1000 | – | –
CN1C(=O)c2cccn2-c2cc(-c3ccc(F)nc3)c(F)cc2C12CC2 [Example 78, 8-Fluoro-5-methyl-9-(6-fluoro-pyridin-3-yl)-spiro[benzo[f]pyrrolo[1,2-a][1,4]diazepine-6,1′-cyclopropan]-4(5H)-one] | 185 to 192 | 100 to 1000 | – | –
CN1C(=O)c2cc(-c3ccccc3)cn2-c2cc(-c3ccc(C#N)nc3)ccc2C12CC2 [Example 117, 5-Methyl-2-phenyl-9-(6-cyano-pyridin-3-yl)-spiro[benzo[f]pyrrolo[1,2-a][1,4]diazepine-6,1′-cyclopropan]-4(5H)-one] | 200 to 204 | 100 to 1000 | – | –
CN1C(=O)c2cc(-c3ccccc3)cn2-c2cc(-c3ccc(F)cn3)ccc2C12CC2 [Example 110, 5-Methyl-2-phenyl-9-(5-fluoro-pyridin-2-yl)-spiro[benzo[f]pyrrolo[1,2-a][1,4]diazepine-6,1′-cyclopropan]-4(5H)-one] | 140 to 151 | < 100 | – | –
Cc1nc(F)ccc1-c1ccc2c(c1)-n1cccc1C(=O)N(C)C21CC1 [Example 32, 5-Methyl-9-(6-fluoro-2-methylpyridin-3-yl)-spiro[benzo[f]pyrrolo[1,2-a][1,4]diazepine-6,1′-cyclopropan]-4(5H)-one] | 198 to 202 | < 100 | – | –
CN1C(=O)c2cc(-c3ccccc3)nn2-c2cc(-c3ccccc3)ccc2C12CC2 [Example 123, 2,9-Diphenyl-5-methyl-2-spiro[benzo[f]pyrazolo[1,5-a][1,4]diazepine-6,1′-cyclopropan]-4(5H)-one] | 133 to 140 | > 1000 | – | –
CN1C(=O)c2cccn2-c2cc(-c3cccc(-c4nnn[nH]4)c3)ccc2C12CC2 [Example 45, 5-Methyl-9-(3-(1H-tetrazol-5-yl)-phenyl)-spiro[benzo[f]pyrrolo[1,2-a][1,4]diazepine-6,1′-cyclopropan]-4(5H)-one] | > 250 | 100 to 1000 | – | –
CN1C(=O)c2cc(-c3ccccc3)cn2-c2cc(-c3ccc(F)nc3)ccc2C12CC2 [Example 106, 5-Methyl-2-phenyl-9-(6-fluoro-pyridin-3-yl)-spiro[benzo[f]pyrrolo[1,2-a][1,4]diazepine-6,1′-cyclopropan]-4(5H)-one] | 177 to 184 | < 100 | – | –
CN1C(=O)c2cccn2-c2ccc(N3CCOCC3)cc2C12CC2 [Example 88, 8-Morpholin-4-yl-5-methyl-spiro[benzo[f]pyrrolo[1,2-a][1,4]diazepine-6,1′-cyclopropan]-4(5H)-one] | 140 to 146 | > 1000 | – | –
CN1C(=O)c2cccn2-c2c(ccc(-c3ccc(F)nc3)c2F)C12CC2 [Example 76, 10-Fluoro-5-Methyl-9-(6-fluoro-pyridin-3-yl)-spiro[benzo[f]pyrrolo[1,2-a][1,4]diazepine-6,1′-cyclopropan]-4(5H)-one] | 153 to 157 | < 100 | – | –
CN1C(=O)c2cc(-c3ccccc3)cn2-c2ccc(N3CCOCC3)cc2C12CC2 [Example 120, 8-Morpholin-4-yl-5-methyl-2-phenyl-spiro[benzo[f]pyrrolo[1,2-a][1,4]diazepine-6,1′-cyclopropan]-4(5H)-one] | 117 to 123 | > 1000 | – | –
CN1C(=O)c2cccn2-c2cc(-c3ccc(F)nc3)ccc2C12CC2 [Example 31, 5-Methyl-9-(6-fluoropyridin-3-yl)-spiro[benzo[f]pyrrolo[1,2-a][1,4]diazepine-6,1′-cyclopropan]-4(5H)-one] | 171 to 176 | < 100 | – | –
COC(=O)c1ncccc1-c1ccc2c(c1)-n1cccc1C(=O)N(C)C21CC1 [Example 71, 5-Methyl-9-(2-methoxycarbonylpyridin-3-yl)-spiro[benzo[f]pyrrolo[1,2-a][1,4]diazepine-6,1′-cyclopropan]-4(5H)-one] | 198 to 203 | > 1000 | – | –
CN1C(=O)c2cccn2-c2cc(CC#N)ccc2C12CC2 [Example 51, 5-Methyl-9-acetonitrile-spiro[benzo[f]pyrrolo[1,2-a][1,4]diazepine-6,1′-cyclopropan]-4(5H)-one] | 60 to 69 | > 1000 | – | –
CN1C(=O)c2cccn2-c2cc(-c3ccc(C(F)(F)F)cn3)ccc2C12CC2 [Example 69, 5-Methyl-9-(5-trifluoromethylpyridin-2-yl)-spiro[benzo[f]pyrrolo[1,2-a][1,4]diazepine-6,1′-cyclopropan]-4(5H)-one] | 78 to 89 | 100 to 1000 | – | –
CC(=O)N1CC=C(c2ccc3c(c2)-n2cccc2C(=O)N(C)C32CC2)CC1 [Example 48, 5-Methyl-9-(1-acetyl-1,2,3,6-tetrahydro-pyridin-4-yl)-spiro[benzo[f]pyrrolo[1,2-a][1,4]diazepine-6,1′-cyclopropan]-4(5H)-one] | 101 to 110 | 100 to 1000 | – | –

Now from value to compound, other results behind:

melting point [°C] | EC50 (human mGluR3 (hmGluR3)) [nM] | SMILES | toxicity induced by NMDA (neuroprotection), cortical primary neurons (cortical primary neurons; NMDA 60 μM, effect tending to disappear at higher concentrations) | toxicity on cortical primary neuron viability (cortical primary neurons; alone, in absence of NMDA challenge, 30 nM to 30 μM)
71 to 80 | < 100 | COCc1cc2n(c1)-c1cc(-c3ccc(F)nc3)ccc1C1(CC1)N(C)C2=O [Example 207] | reduces in a dose-dependent manner the toxicity induced by NMDA up to 1 μM | no toxicity
211 to 217 | < 100 | CN1C(=O)c2cc(-c3ccccc3)nn2-c2cc(-c3cccc(C(=O)O)c3)ccc2C12CC2 [Example 133, 3-(5-methyl-4-oxo-2-phenyl-4,5-dihydrospiro[benzo[f]pyrazolo[1,5-a][1,4]diazepine-6,1′-cyclopropan]-9-yl)benzoic acid] | – | –
> 250 | < 100 | [2H]C([2H])([2H])N1C(=O)c2cc(-c3nnco3)cn2-c2cc(-c3ccc(F)nc3)ccc2C12CC2 [Example 188] | – | –
> 250 | < 100 | CN1C(=O)c2cc(-c3ncc[nH]3)cn2-c2cc(-c3ccc(F)nc3)ccc2C12CC2 [Example 186] | – | –
144 to 154 | < 100 | Cc1ccc(-c2ccc3c(c2)-n2cc(CO)cc2C(=O)N(C)C32CC2)cn1 [Example 202] | – | –
127 to 130 | > 1000 | CN1C(=O)c2cccn2-c2ccccc2C1(C)C [Example 221, 5,6,6-Trimethyl-5,6-dihydro-benzo[f]pyrrolo[1,2-a][1,4]diazepin-4-one] | – | –
> 250 | < 100 | CN(C)c1ccc(-c2ccc3c(c2)-n2cc(-c4nnco4)cc2C(=O)N(C)C32CC2)cn1 [Example 190] | – | –
> 250 | 100 to 1000 | Cc1ncccc1-c1ccc2c(c1)-n1cc(C(=O)O)cc1C(=O)N(C)C21CC1 [Example 176, 5-Methyl-9-(2-methylpyridin-3-yl)-4-oxo-4,5-dihydrospiro[benzo[f]pyrrolo[1,2-a][1,4]diazepine-6,1′-cyclopropane]-2-carboxylic acid] | – | –
199 to 208 | 100 to 1000 | CN1C(=O)c2cc(-c3ccccc3)nn2-c2cc(-c3cn[nH]c3)ccc2C12CC2 [Example 134, 9-(1H-pyrazol-4-yl)-5-methyl-2-phenyl-spiro[benzo[f]pyrazolo[1,5-a][1,4]diazepine-6,1′-cyclopropan]-4(5H)-one] | – | –
198 to 205 | 100 to 1000 | CN1C(=O)c2cc(-c3ccccc3)cn2-c2cc(-c3cccc(S(=O)(=O)N(C)C)c3)ccc2C12CC2 [Example 141, N,N-dimethyl-3-(5-methyl-4-oxo-2-phenyl-4,5-dihydrospiro[benzo[f]pyrrolo[1,2-a][1,4]diazepine-6,1′-cyclopropan]-9-yl)benzenesulfonamide] | – | –
